From patent publication US20200140489A1 (priority 2013, published 2020)
Where two headings read alike, the source gives them in different places. Positions of bridges follow the written chain, without caps; N, C: chain ends. Non-standard residues stand in square brackets, D forms with d. Residues, ends and D or L forms follow the SMILES beside them. NMeF = CN[C@@H](Cc1ccccc1)C(=O)O; NMeN = CN[C@@H](CC(N)=O)C(=O)O; NMeC = CN[C@@H](CS)C(=O)O; Nphe = O=C(O)CNCc1ccccc1

Key:
[1] = target: T1, AgrC-III (Staphylococcus aureus, UniProt O33590); test: Hemolysis assay, wild-type group-III strain MN8, rabbit red blood cells
[2] = test system: TSST-1 production in wild-type group-III S. aureus (MN8); type: cell-based
[3] = target: T1, AgrC-III; type: cell-based, S. aureus; details: for IC50: read-out: AgrC-III IC50, fluorescence reporter strain
[4] = target: T2, AgrC-II (Staphylococcus aureus, UniProt O33587); test: Hemolysis assay, wild-type group-II strain RN6923, rabbit red blood cells; details: for IC50: read-out: AgrC-II IC50, selected second-generation analogues, hemolysis assay, 200 fM − 10 μM
[5] = target: T3, AgrC-IV (Staphylococcus aureus, UniProt Q309Z2); test: Hemolysis assay, wild-type group-IV strain RN4850, rabbit red blood cells; details: for IC50: read-out: AgrC-IV IC50, hemolysis assay, 200 fM − 10 μM
[6] = target: T2, AgrC-II; type: cell-based, S. aureus; details: for IC50: read-out: AgrC-II IC50, fluorescence reporter strain
[7] = target: T4, AgrC-I (Staphylococcus aureus, UniProt O07911); type: cell-based, S. aureus; details: for IC50: read-out: AgrC-I IC50
[8] = target: T3, AgrC-IV; type: cell-based, S. aureus; details: for IC50: read-out: AgrC-IV IC50, fluorescence reporter strain
[9] = target: T1, AgrC-III; details: read-out: AgrC-III EC50; β-lactamase reporter strain; 2.5 pM − 10 μM
[10] = target: T4, AgrC-I; test: Hemolysis assay, wild-type group-I strain RN6390B, rabbit red blood cells; details: read-out: AgrC-I IC50; selected second-generation analogues, hemolysis assay; 200 fM − 10 μM
[11] = AIPs tested over 200 fM − 10 μM or (b1) 2.5 pM − 10 μM, triplicate
[12] = fluorescence reporter strain, AIPs tested over 200 fM − 10 μM or (b1) 2.5 pM − 10 μM, triplicate
[13] = read-out: AgrC-III IC50, selected second-generation analogues, 200 fM − 10 μM
[14] = selected second-generation analogues
[15] = second-generation analogues, 200 fM − 10 μM

T3 sequence (Q309Z2 1-430): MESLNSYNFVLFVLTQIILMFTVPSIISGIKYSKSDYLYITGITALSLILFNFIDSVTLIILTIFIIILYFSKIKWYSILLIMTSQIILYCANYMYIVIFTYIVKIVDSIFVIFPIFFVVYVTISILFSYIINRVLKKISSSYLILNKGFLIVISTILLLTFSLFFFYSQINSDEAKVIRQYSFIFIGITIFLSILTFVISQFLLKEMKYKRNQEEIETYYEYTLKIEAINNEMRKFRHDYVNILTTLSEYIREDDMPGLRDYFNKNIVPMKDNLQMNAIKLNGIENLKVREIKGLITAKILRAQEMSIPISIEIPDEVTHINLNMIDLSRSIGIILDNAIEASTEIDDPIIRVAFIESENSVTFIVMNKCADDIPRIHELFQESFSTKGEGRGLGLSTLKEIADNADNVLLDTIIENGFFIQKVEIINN
T1 sequence (O33590 1-425): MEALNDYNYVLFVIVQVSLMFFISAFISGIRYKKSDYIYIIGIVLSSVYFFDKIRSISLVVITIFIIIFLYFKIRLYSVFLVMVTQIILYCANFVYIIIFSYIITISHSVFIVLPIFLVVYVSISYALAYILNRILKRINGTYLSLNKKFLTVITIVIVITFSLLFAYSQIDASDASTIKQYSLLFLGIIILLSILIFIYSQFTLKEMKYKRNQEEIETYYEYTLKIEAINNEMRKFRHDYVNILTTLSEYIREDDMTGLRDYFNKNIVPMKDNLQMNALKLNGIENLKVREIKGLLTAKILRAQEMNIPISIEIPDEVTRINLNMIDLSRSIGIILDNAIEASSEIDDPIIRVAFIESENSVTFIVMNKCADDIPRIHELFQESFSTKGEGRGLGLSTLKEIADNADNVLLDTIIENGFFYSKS
T2 sequence (O33587 1-437): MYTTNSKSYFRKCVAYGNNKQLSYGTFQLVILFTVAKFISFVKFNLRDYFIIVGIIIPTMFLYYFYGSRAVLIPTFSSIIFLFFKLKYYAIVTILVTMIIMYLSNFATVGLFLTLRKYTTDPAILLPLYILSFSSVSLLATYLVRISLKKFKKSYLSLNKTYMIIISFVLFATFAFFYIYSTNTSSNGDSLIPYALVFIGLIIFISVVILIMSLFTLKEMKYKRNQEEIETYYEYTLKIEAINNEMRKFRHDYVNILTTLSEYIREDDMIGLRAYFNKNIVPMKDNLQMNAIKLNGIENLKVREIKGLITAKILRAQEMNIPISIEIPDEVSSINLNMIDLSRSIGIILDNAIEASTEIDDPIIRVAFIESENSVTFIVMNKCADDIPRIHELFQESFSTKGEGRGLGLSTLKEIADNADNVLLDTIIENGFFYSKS
T4 sequence (O07911 1-430): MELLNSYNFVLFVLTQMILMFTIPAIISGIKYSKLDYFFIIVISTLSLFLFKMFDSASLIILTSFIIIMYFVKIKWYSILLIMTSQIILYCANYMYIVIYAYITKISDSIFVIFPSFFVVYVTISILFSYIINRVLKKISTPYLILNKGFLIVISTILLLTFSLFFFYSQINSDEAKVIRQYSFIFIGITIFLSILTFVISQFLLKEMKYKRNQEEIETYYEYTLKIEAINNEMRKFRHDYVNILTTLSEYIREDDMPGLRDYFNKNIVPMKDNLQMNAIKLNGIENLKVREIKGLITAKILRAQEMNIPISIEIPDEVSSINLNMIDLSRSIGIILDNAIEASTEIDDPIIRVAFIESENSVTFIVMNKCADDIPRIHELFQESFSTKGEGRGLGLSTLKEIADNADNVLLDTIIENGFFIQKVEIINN

Compound: CC[C@H](C)[C@H](N)C(=O)N[C@@H](CC(N)=O)C(=O)N[C@H]1CSC(=O)[C@H](CC(C)C)NC(=O)[C@H](CC(C)C)NC(=O)[C@H](Cc2ccccc2)NC(=O)[C@H](C)NC1=O [AIP-III D4A, I-N-(C-A-F-L-L)] (H-INCAFLL; thioester 3-C)
- IC50 ([1]; read-out: AgrC-III IC50, 200 fM − 10 μM): 0.163 nM
- reduction of TSST-1 levels [2]: 80%
- fold increase of inhibitory activity relative to AIP-III ([3]; gfp reporter, group-III): at least 10 fold
- fold more active inhibitor than tAIP-I D2A ([3]; gfp reporter, group-III): ~10 fold
- fold more active than tAIP-I D2A in the hemolysis assay ([4]; group-II strain): 40 fold
- fold more active than tAIP-I D2A in the hemolysis assay ([5]; group IV strain): three
- IC50 [5]: 0.106 nM
- fold increase of inhibitory activity relative to AIP-III ([6]; gfp reporter, group-II): at least 10 fold
- fold more active inhibitor than tAIP-I D2A ([6]; gfp reporter, group-II): ~10 fold
- fold increase of inhibitory activity relative to AIP-III ([7]; gfp reporter, group-I): at least 10 fold
- fold more active inhibitor than tAIP-I D2A ([7]; gfp reporter, group-I): ~10 fold
- fold increase of inhibitory activity relative to AIP-III ([8]; gfp reporter, group-IV): at least 10 fold
- fold more active inhibitor than tAIP-I D2A ([8]; gfp reporter, group-IV): ~10 fold

Compound: CC[C@H](C)[C@H](N)C(=O)N[C@@H](CC(N)=O)C(=O)N(C)[C@H]1CSC(=O)[C@H](CC(C)C)NC(=O)[C@H](CC(C)C)NC(=O)[C@H](Cc2ccccc2)NC(=O)[C@H](CC(=O)O)NC1=O [AIP-III N-Me-C3, I-N-(NMeC-D-F-L-L)] (H-IN[NMeC]DFLL; thioester 3-C)
- IC50 [6, 11]: 134 nM
- IC50 [7, 12]: 137 nM
- EC50 [9]: > 1000 nM
- IC50 [8, 11]: 106 nM

Compound: CC[C@H](C)[C@H](N)C(=O)N[C@@H](CC(N)=O)C(=O)N[C@H]1CSC(=O)[C@H](CC(C)C)NC(=O)[C@H](CC(C)C)NC(=O)[C@H](Cc2ccccc2)N(C)C(=O)[C@H](CC(=O)O)NC1=O [AIP-III N-Me-F5, I-N-(C-D-NMeF-L-L)] (H-INCD[NMeF]LL; thioester 3-C)
- IC50 [6, 11]: 1.95 nM
- IC50 [7, 12]: 4.49 nM
- EC50 [9]: 49.6 nM
- IC50 [8, 11]: 6.59 nM

Compound: CC[C@H](C)[C@H](N)C(=O)N(C)[C@@H](CC(N)=O)C(=O)N[C@H]1CSC(=O)[C@H](CC(C)C)NC(=O)[C@H](CC(C)C)NC(=O)[C@H](Cc2ccccc2)NC(=O)[C@H](CC(=O)O)NC1=O [AIP-III N-Me-N2, I-NMeN-(C-D-F-L-L)] (H-I[NMeN]CDFLL; thioester 3-C)
- IC50 [6, 11]: 3.19 nM
- IC50 [7, 12]: 8.04 nM
- EC50 [9]: 19 nM
- IC50 [8, 11]: 9.54 nM

Compound: CC[C@H](C)[C@H](N)C(=O)N[C@@H](CC(N)=O)C(=O)N[C@H]1CSC(=O)[C@H](CC(C)C)NC(=O)[C@H](CC(C)C)NC(=O)CN(Cc2ccccc2)C(=O)[C@H](CC(=O)O)NC1=O [AIP-III nF5, I-N-(C-D-nF-L-L)] (H-INCD[Nphe]LL; thioester 3-C)
- IC50 [3, 11]: > 1000 nM
- fold reduction of potency for AgrC-II versus AIP-III ([6]; gfp reporter): 13 fold
- IC50 [6, 11]: 75.6 nM
- IC50 [7, 12]: 13.8 nM
- EC50 [9]: 202 nM
- fold increase of inhibitory activity relative to AIP-III ([8]; gfp reporter, group-IV): 10 fold
- IC50 [8, 11]: 0.839 nM

Compound: CC(=O)N[C@H]1CSC(=O)[C@H](CC(C)C)NC(=O)[C@H](CC(C)C)NC(=O)[C@H](Cc2ccccc2)NC(=O)[C@H](C)NC1=O [tAIP-III D2A, Ac-(C-A-F-L-L)] (Ac-CAFLL; thioester 1-C)
- IC50 [1, 13]: 0.197 nM
- reduction of TSST-1 levels [2]: 80%
- IC50 [4]: 0.711 nM
- IC50 [10]: 0.332 nM
- IC50 [5, 14]: 0.306 nM
- IC50 [6, 15]: 0.9 nM

Compound: CC(=O)N[C@H]1CSC(=O)[C@H](CC(C)C)NC(=O)[C@H](CC(C)C)NC(=O)[C@H](Cc2ccc(O)cc2)NC(=O)[C@H](C)NC1=O [tAIP-III D2A/F3Y, Ac-(C-A-Y-L-L)] (Ac-CAYLL; thioester 1-C)
- IC50 [1, 13]: 0.265 nM
- IC50 [3, 15]: 0.387 nM
- IC50 [4]: 0.204 nM
- IC50 [10]: 0.279 nM
- IC50 [5, 14]: 0.134 nM
- IC50 [6, 15]: 1.15 nM
- IC50 [7]: 0.279 nM
- IC50 [8, 15]: 0.0306 nM
